These results are taken from patent US20240216356A1, “TASTE MASKED COMPOSTIONS OF 2,4,6-TRIFLUORO-N-[6-(1-METHYL-PIPERIDINE-4-CARBONYL)-PYRIDIN-2-YL]-BENZAMIDE HEMISUCCINATE, AND ORALLY DISENTEGRATING TABLET COMPRISING THE SAME” (priority 2021, published 2024).

Molecules are shown by their SMILES. Converted amounts (≈) assume the structure as drawn.

Series [1] is described as follows: Solubility of lasmiditan over the pH range of the oral cavity. Type of series: physicochemical. The procedure: Lasmiditan is highly soluble (dissolves readily in the mouth) but extremely bitter in taste, and has other negative sensory attributes, that preclude conventional ODT development. […] The efficacious dose is from 25 to 200 mg depending on patient weight or other factors. […] Extreme bitterness, mouth numbing, and other negative sensory attributes are present and persist for 30 minutes.

The conditions of series [2]: current marketed immediate release tablets; cited from earlier work.

A word on the solubility: it is the dissolved amount per volume that the medium holds. Consider `CN1CCC(C(=O)c2cccc(NC(=O)c3c(F)cc(F)cc3F)n2)CC1` [Lasmiditan, 2,4,6-trifluoro-N-[6-(1-methyl-piperidin-4-ylcarbonyl)-pyridin-2-yl]-benzamide], for which the solubility in series [1] (pH 5, aqueous buffer) was found to be 35 mg/mL (≈ 92.7 mM); in series [1] (pH 6.8, aqueous buffer) it was 9.8 mg/mL (≈ 26 mM). Further, in series [2], the “onset of action (time to symptom relief)” value is “about 2 hours”.
